Laboratory results taken from patent publication US20220363665A1, “QUINOLINE COMPOUNDS FOR THE TREATMENT OF AUTOIMMUNE DISEASE” (Hoffmann-La Roche Inc., priority 2019, published 2022).

molecular target: T1, human TLR8 (Homo sapiens, UniProt Q9NR97); test: HEK293-Blue-hTLR-8 cells assay (SEAP reporter, R848 stimulation); type: cell-based; conditions: HEK293-Blue-hTLR8 cells, R848, 20 hrs
T1 construct: host or cells: HEK293 (HEK-Blue hTLR8)
T1 sequence (Q9NR97 27-1041): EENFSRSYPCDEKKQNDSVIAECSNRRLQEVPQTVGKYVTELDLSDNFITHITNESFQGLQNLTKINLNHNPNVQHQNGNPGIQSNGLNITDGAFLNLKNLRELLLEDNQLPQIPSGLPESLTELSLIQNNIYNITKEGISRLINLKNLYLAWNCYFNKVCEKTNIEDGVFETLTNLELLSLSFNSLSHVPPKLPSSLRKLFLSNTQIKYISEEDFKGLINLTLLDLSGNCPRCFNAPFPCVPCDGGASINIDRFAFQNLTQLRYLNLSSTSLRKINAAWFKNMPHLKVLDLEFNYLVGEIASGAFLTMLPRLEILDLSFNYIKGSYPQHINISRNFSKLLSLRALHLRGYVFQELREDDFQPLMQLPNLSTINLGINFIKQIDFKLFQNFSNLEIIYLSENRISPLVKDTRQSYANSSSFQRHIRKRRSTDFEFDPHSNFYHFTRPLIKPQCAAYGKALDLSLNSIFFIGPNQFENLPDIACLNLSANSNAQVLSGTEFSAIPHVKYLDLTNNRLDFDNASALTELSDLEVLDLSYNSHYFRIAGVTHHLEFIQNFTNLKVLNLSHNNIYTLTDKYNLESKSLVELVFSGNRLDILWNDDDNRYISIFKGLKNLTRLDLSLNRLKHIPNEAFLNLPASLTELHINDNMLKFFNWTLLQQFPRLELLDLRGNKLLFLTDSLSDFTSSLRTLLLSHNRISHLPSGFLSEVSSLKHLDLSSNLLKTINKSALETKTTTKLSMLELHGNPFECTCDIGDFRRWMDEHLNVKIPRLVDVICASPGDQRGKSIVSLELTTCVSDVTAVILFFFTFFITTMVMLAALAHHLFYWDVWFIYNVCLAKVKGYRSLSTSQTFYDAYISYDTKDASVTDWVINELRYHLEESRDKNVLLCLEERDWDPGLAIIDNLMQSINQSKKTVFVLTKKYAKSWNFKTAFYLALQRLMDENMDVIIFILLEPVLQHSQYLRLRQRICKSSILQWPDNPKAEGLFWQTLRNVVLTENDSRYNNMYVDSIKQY
Procedure: The following tests were carried out in order to determine the activity of the compounds of formula (I) in HEK293-Blue-hTLR-7/8/9 cells assay.
HEK293-Blue-hTLR-8 Cells Assay:
A stable HEK293-Blue-hTLR-8 cell line was purchased from InvivoGen (Cat. #: hkb-htlr8, San Diego, Calif., USA). These cells were originally designed for studying the stimulation of human TLR8 by monitoring the activation of NF-κB. A SEAP (secreted embryonic alkaline phosphatase) reporter gene was placed under the control of the IFN-β minimal promoter fused to five NF-κB and AP-1-binding sites. The SEAP was induced by activating NF-κB and AP-1 via stimulating HEK-Blue hTLR8 cells with TLR8 ligands. Therefore the reporter expression was declined by TLR8 antagonist under the stimulation of a ligand, such as R848, for incubation of 20 hrs. The cell culture supernatant SEAP reporter activity was determined using QUANTI-Blue™ kit (Cat #. rep-qbl, Invivogen, San Diego, Calif., USA) at a wavelength of 640 nm, a detection medium that turns purple or blue in the presence of alkaline phosphatase.
HEK293-Blue-hTLR8 cells were incubated at a density of 250,000˜450,000 cells/mL in a volume of 170 μL in a 96-well plate in Dulbecco's Modified Eagle's medium (DMEM) containing 4.5 g/L glucose, 50 U/mL penicillin, […], […], 2 mM L-glutamine, 10% (v/v) heat-inactivated fetal bovine serum with addition of 20 μL test compound in a serial dilution in the presence of final DMSO at 1% and 10 μL of 60 μM R848 in above DMEM, perform incubation under 37° C. in a CO2 incubator for 20 hrs. Then 20 μL of the supernatant from each well was incubated with 180 μL Quanti-blue substrate solution at 37° C. for 2 hrs and the absorbance was read at 620˜655 nm using a spectrophotometer. The signalling pathway that TLR8 activation leads to downstream NF-KB activation has been widely accepted, and therefore similar reporter assay was modified for evaluating TLR8 antagonist.

Row | SMILES | IC50 [nM]
1 | C[C@@H]1CN(c2ccc(C(F)(F)F)c3ncccc23)C[C@H](C(=O)N[C@H]2CNC[C@H]2F)O1 (single isomer, unassigned) [Example 2B] | 8
2 | C[C@@H]1CN(c2ccc(C(F)(F)F)c3ncccc23)C[C@H](C(=O)NC2CC3CCCC(C2)N3)O1 (single isomer, unassigned) [Example 34A] | < 3
3 | CC(NC(=O)[C@H]1CN(c2ccc(C(F)(F)F)c3ncccc23)C[C@@H](C)O1)C1CN(C)CCO1 (single isomer, unassigned) [Example 35A] | 6
4 | CC(NC(=O)[C@H]1CN(c2ccc(C(F)(F)F)c3ncccc23)C[C@@H](C)O1)C1CN(C)CCO1 (single isomer, unassigned) [Example 35B] | < 3
5 | C[C@@H]1CN(c2ccc(C(F)(F)F)c3ncccc23)C[C@H](C(=O)NC2C3CNCC2COC3)O1 (single isomer, unassigned) [Example 46A] | 16
6 | C[C@@H]1CN(c2ccc(C(F)(F)F)c3ncccc23)C[C@H](C(=O)NC2C3CNCC2COC3)O1 (single isomer, unassigned) [Example 46B] | 55
7 | C[C@@H]1CN(c2ccc(C(F)(F)F)c3ncccc23)C[C@H](C(=O)NC2CC3CCC(C2)N3)O1 (single isomer, unassigned) [Example 47A] | < 3
8 | C[C@@H]1CN(c2ccc(C(F)(F)F)c3ncccc23)C[C@H](C(=O)NC2CC3CCC(C2)N3)O1 (single isomer, unassigned) [Example 47B] | < 3
9 | C[C@@H]1CN(c2ccc(C(F)(F)F)c3ncccc23)C[C@H](C(=O)NC2CC3CNCC32)O1 (single isomer, unassigned) [Example 49C] | 5
10 | C[C@H]1C[C@@H](N)CN(c2ccc(C(F)(F)F)c3ncccc23)C1 [Example 1, (3R,5S)-5-methyl-1-[8-(trifluoromethyl)-5-quinolyl]piperidin-3-amine] | < 3
11 | C[C@@H]1CN(c2ccc(C(F)(F)F)c3ncccc23)C[C@H](C(=O)NC2CNC[C@@H]2F)O1 (stereo partly drawn) [Example 2, cis-(2R,6R)-N-(4-fluoropyrrolidin-3-yl)-6-methyl-4-[8-(trifluoromethyl)-5-quinolyl]morpholine-2-carboxamide] | 6
12 | C[C@@H]1CN(c2ccc(C(F)(F)F)c3ncccc23)C[C@H](C(=O)N2CC(N)C2)O1 [Example 7, (3-aminoazetidin-1-yl)-[(2R,6R)-6-methyl-4-[8-(trifluoromethyl)-5-quinolyl]morpholin-2-yl]methanone] | 35
13 | C[C@@H]1CN(c2ccc(C(F)(F)F)c3ncccc23)C[C@H](C(=O)N2CCC(N)CC2)O1 [Example 12, (4-amino-1-piperidyl)-[(2R,6R)-6-methyl-4-[8-(trifluoromethyl)-5-quinolyl]morpholin-2-yl]methanone] | 5
14 | C[C@@H]1CN(c2ccc([N+](=O)[O-])c3ncccc23)C[C@H](C(=O)N[C@@H]2CNC[C@@H]2F)O1 [Example 19, cis-(2R,6R)-N-[41-fluoropyrrolidin-3-yl]-6-methyl-4-(8-nitro-5-quinolyl)morpholine-2-carboxamide] | < 3
15 | Cc1ccc(N2C[C@@H](C)O[C@@H](C(=O)N[C@@H]3CNC[C@@H]3F)C2)c2cccnc12 [Example 21, cis-(2R,6R)-N-14-fluoropyrrolidin-3-yl1-6-methyl-4-(8-methyl-5-quinolyl)morpholine-2carboxamide] | 9
16 | C[C@@H]1CN(c2ccc(Cl)c3ncccc23)C[C@H](C(=O)N[C@H]2CNC[C@H]2F)O1 [Example 22, (2R,6R)-4-(8-chloro-5-quinolyl)-N-[(3S,4R)-4-fluoropyrrolidin-3-yl]-6-methyl-morpholine-2-carboxamide] | 19
17 | C[C@H]1C[C@@H](N)CN(c2ccc(Cl)c3ncccc23)C1 [Example 23, (3R,5S)-1-(8-chloro-5-quinolyl)-5-methyl-piperidin-3-amine] | 4
18 | C[C@@H]1CN(c2ccc(Cl)c3ncccc23)C[C@H](C(=O)NC2CCN(C)CC2)O1 [Example 24, (2R,6R)-4-(8-chloro-5-quinolyI)-6-methyl-N-(1-methyl-4-piperidyl)morpholine-2-carboxamide] | < 3
19 | C[C@@H]1CN(c2ccc(C(F)(F)F)c3ncccc23)C[C@H](C(=O)NCC2CNCC2(F)F)O1 (stereo partly drawn) [Example 29, (2R,6R)-N-[(4,4-difluoropyrrolidin-3-yl)methyl]-6-methyl-4-[8-(trifluoromethyl)-5-quinolyl]morpholine-2-carboxamide] | 14
20 | C[C@@H]1CN(c2ccc(C(F)(F)F)c3ncccc23)C[C@H](C(=O)NC2CC3COCC(C2)N3)O1 (stereo partly drawn) [Example 33, (2R,6R)-6-methyl-N-(3-oxa-9-azabicyclo[3.3.1]nonan-7-yl)-4-[8-(trifluoromethyl)-5-quinolyl]morpholine-2-carboxamide] | < 3
21 | C[C@@H]1CN(c2ccc(C(F)(F)F)c3ncccc23)C[C@H](C(=O)N2CCC3(CCNC3)C2)O1 (some centres unmarked) [Example 36] | 25
22 | C[C@@H]1CN(c2ccc(C(F)(F)F)c3ncccc23)C[C@H](C(=O)NC2CC3CNCC(C3)C2)O1 (stereo partly drawn) [Example 37, (2R,6R)-N-(3-azabicyclo[3.3.1]nonan-7-yl)-6-methyl-4-[8-(trifluoromethyl)-5-quinolyl]morpholine-2-carboxamide] | 6
23 | C[C@@H]1CN(c2ccc(I)c3ncccc23)C[C@H](C(=O)NC2CNCC2F)O1 (stereo partly drawn) [Example 40, cis-(2R,6R)-N-[4-fluoropyrrolidin-3-yl]-4-(8-iodo-5-quinolyl)-6-methyl-morpholine-2-carboxamide] | < 3
24 | C[C@@H]1CN(c2ccc(Br)c3ncccc23)C[C@H](C(=O)NC2CNCC2F)O1 (stereo partly drawn) [Example 41, cis-(2R,6R)-4-(8-bromo-5-quinolyl)-N-[4-fluoropyrrolidin-3-yl]-6-methyl-morpholine-2-carboxamide] | < 3
25 | C[C@@H]1CN(c2ccc(Br)c3ncccc23)C[C@H](C(=O)NC2CCN(C)CC2)O1 [Example 42, (2R,6R)-4-(8-bromo-5-quinolyl)-6-methyl-N-(1-methyl-4-piperidyl)morpholine-2-carboxamide] | < 3
26 | C#Cc1ccc(N2C[C@@H](C)O[C@@H](C(=O)NC3CCN(C)CC3)C2)c2cccnc12 [Example 43, (2R,6R)-4-(8-ethynyl-5-quinolyl)-6-methyl-N-(1-methyl-4-piperidyl)morpholine-2-carboxamide] | < 3
27 | C[C@@H]1CN(c2ccc(C(F)(F)F)c3ncccc23)C[C@H](C(=O)NC2C[C@H]3C[C@@H]2CN3)O1 (some centres unmarked) [Example 44] | 43
28 | C[C@@H]1CN(c2ccc(C(F)(F)F)c3ncccc23)C[C@H](C(=O)NC2C3CCCC2CNC3)O1 (stereo partly drawn) [Example 45, (2R,6R)-N-(3-azabicyclo[3.3.1]nonan-9-yl)-6-methyl-4-[8-(trifluoromethyl)-5-quinolyl]morpholine-2-carboxamide] | < 3
29 | C[C@@H]1CN(c2ccc(C(F)(F)F)c3ncccc23)C[C@H](C(=O)NCC2CNCCO2)O1 (stereo partly drawn) [Example 48, (2R,6R)-6-methyl-N-(morpholin-2-ylmethyl)-4-[8-(trifluoromethyl)-5-quinolyl]morpholine-2-carboxamide] | < 3
